The source of these data is patent US20090209620A1, “Direct Reversal Of The Suppressive Function Of CD4+Regulatory T Cells Via Toll-Like Receptor 8 Signaling” (priority 2005, published 2009).

“Also recorded” adds a separate entry of the source. In the oligonucleotide strings, read from the 5' end, every base follows the letter of its sugar. An asterisk marks phosphorothioate; unmarked linkages are phosphodiester. Other units and linkages are bracketed, terminal groups are in braces. A string of capitals states the bases alone. d = 2'-deoxy (DNA)

The first series deals with CD4+ Treg cells (Treg102, Treg164). Description: Proliferation assay without DCs: Treg suppression of naive CD4+ T cell proliferation, anti-CD3-coated plates. As to conditions: absence of DCs; anti-CD3-coated plates; oligonucleotides 3 ug/ml in medium. In kind it is cell-based, human. The text has this: Establishing Treg cell lines and purifying natural CD4^+ CD25^+ Treg cells CD4^+ Treg clones were established from CD4^+ tumor-infiltrating lymphocytes (TIL102 and TIL164) and maintained in RPMI 1640 medium containing 10% human AB serum and recombinant IL-2 (300 IU/ml) using methods well known in the art (See, e.g., H. Y. Wang et al., Immunity 20, 107-118 (2004)). Treg clones derived from TIL102 or TIL164 cells were pooled and designated Treg102 or Treg164. Naturally occurring CD4^+ CD25^+ Treg cells were obtained by sorting CD4^+ T cell populations from fresh PBMCs after staining with anti-CD4 and anti-CD25 antibodies. To obtain optimal expansion, the OKT3 expansion method was performed using methods well known in the art (See, e.g., H. Y. Wang et al., Immunity 20, 107-118 (2004)). T cell clones were maintained at a low IL-2 concentration (300 IU/ml). Melanoma cell lines and EBV-transformed B-cell lines used in this study were cultured in RPMI 1640 medium containing 10% FCS. Human embryonic kidney (HEK) 293 and Epstein-Barr virus (EBV)-transformed B cell lines were maintained in RPMI 1640 with 10% fetal calf serum (FCS).
B. Proliferation assay without DCs: 1×10^5 näive CD4 T cells were cultured with regulatory T cells at different ratios (1: 0.2, 1:0.1 and 1:0.05) in anti-CD3 mAb-coated (2 ug/ml) 96-well plates in the presence or absence of the following TLR ligands or cytokines: CpG-A (3 ug/ml), CpG-B (3 ug/ml), LPS (100 ng/ml), TNF.-α (20 ng/ml), IFN-α (100 ng/ml), or IL-6 (100 ng/ml). After 56 h of culture, [3H]thymidine was added at a final concentration of 1 uCi/well, followed by an additional 16 h of culture. The incorporation of [^3H]thymidine was measured with a liquid scintillation counter.
Näive CD4^+ T cell proliferation experiments were performed similar to those in FIG. 1A, but in the absence of DCs. […] The reversal effect of CpG-A (SEQ ID NO: 1) contrasts with the failure of CpG-B (SEQ ID NO: 2), LPS, TNF-α, IL-6 or IFN-α to block the suppressive activity of CD4^+ Treg cells against naive CD4^+ T cells (FIG. 1B).
To further define the CpG-A (SEQ ID NO: 1) sequences responsible for the observed reversal effect, CpG-NG (SEQ ID NO: 5) and Poly-G10 (SEQ ID NO: 6), were tested for their ability to reverse the suppressive function of Treg cells. Naive CD4^+ T cells were mixed with CD4^+ Treg cells in anti-CD3 antibody-coated 96-wells with 200 μl of medium containing CpG-NG (SEQ ID NO: 5), CpG-A (SEQ ID NO: 1) or Poly-G10 (SEQ ID NO: 6). The proliferation assay was conducted as described in FIG. 1. […] For the experiments shown in FIG. 2B, naive CD4^+ T cells were mixed with CD4^+ Treg cells in anti-CD3 antibody-coated 96-wells with 200 μl of medium containing Poly-A10 (SEQ ID NO: 7), Poly-T10 (SEQ ID NO: 9) or Poly-C10 (SEQ ID NO: 8), while the Poly-G10 (SEQ ID NO: 6) oligonucleotides served as a positive control.
A series of oligonucleotides with decreasing numbers of guanosine nucleosides was constructed to determine the minimal number required for the reversal effect. For the experiments in FIG. 2C, CD4^+ T cells were mixed with CD4^+ Treg cells in anti-CD3 antibody-coated 96-wells containing medium with protected phosphorothioate linked guanosine nucleoside containing oligonucleotides of various lengths, while the unprotected five guanosines (SEQ ID NO: 10) served as a control.
Turning to “A4G1: a single guanosine plus other nucleotides with protected phosphorothioate linkages (DNA dA*dA*dG*dA*dA)”, the “reversal of Treg cell-mediated suppression of naive CD4+ T cell proliferation” value (“reversal … of naive CD4+ T cell proliferation” below) is “found to reverse the suppressive activity of Treg cells”.

On to “C4G1: a single guanosine plus other nucleotides with protected phosphorothioate linkages (DNA dC*dC*dG*dC*dC)”, for which the “reversal … of naive CD4+ T cell proliferation” value is “found to reverse the suppressive activity of Treg cells”.

Turning to “CpG-B: CpG-B oligonucleotide, ligand for TLR9 (DNA GGGGGAGCATGCTGCGGGGG; listed as DNA, chemistry not given here)”, the “reversal … of naive CD4+ T cell proliferation” value is “failure”.

As to “CpG-NG: oligonucleotide derived from CpG-A, tested to define the sequences responsible for reversal (DNA AAAAGACGATCGTCAAAAAA; listed as DNA, chemistry not given here)”, the “reversal … of naive CD4+ T cell proliferation” value is “Treg suppression reversal was lost”.

Take “G5: unprotected five guanosines with a regular phosphodiester backbone (DNA GGGGG; unmodified DNA)”: the “reversal … of naive CD4+ T cell proliferation” value was “failed to reverse the suppressive activity of Treg cells”.

In the case of “Poly-A10: Poly-A oligonucleotide with the same protected phosphorothioate backbone (DNA dA*dA*dA*dA*dA*dA*dA*dA*dA*dA)”, the “reversal … of naive CD4+ T cell proliferation” value is recorded as “failed to reverse the suppressive function of Treg cells; also recorded: lacked the ability to reverse the suppressive activity of Treg cells”.

In the case of “Poly-C10: Poly-C oligonucleotide with the same protected phosphorothioate backbone (DNA dC*dC*dC*dC*dC*dC*dC*dC*dC*dC)”, the “reversal … of naive CD4+ T cell proliferation” value was “failed to reverse the suppressive function of Treg cells; also recorded: lacked the ability to reverse the suppressive activity of Treg cells”.

In the case of “T4G1: a single guanosine plus other nucleotides with protected phosphorothioate linkages (DNA dT*dT*dG*dT*dT)”, the “reversal … of naive CD4+ T cell proliferation” value was “found to reverse the suppressive activity of Treg cells”.

Take TNF-α: the “reversal … of naive CD4+ T cell proliferation” value was “failure”.

In another series the test system is CD4+ Treg cells. Description: Pretreatment of Treg cells, then proliferation assay with naive CD4+ T cells (without DCs). In kind it is cell-based, human. As to conditions: Treg cells pretreated 3 days, washed, then mixed with naive CD4+ T cells. The method, then: C. Pretreatment of Treg cells: 1×10^6 Treg cells were cultured in medium containing CpG-A (3 ug/ml), CpG-B (3 ug/ml), LPS (100 ng/ml), TNF.-α (20 ng/ml), IFN-α (100 ng/ml) or IL-6 (100 ng/ml) for 3 days. After three washes, the pretreated Treg cells were cultured with näive CD4^+ T cells in anti-CD3 mAb-coated plates (without DCs) to determine their suppressive function. After 56 h of culture, [3H]thymidine was added at a final concentration of 1 uCi/well, and cultured for an additional 16 h. The incorporation of [^3H]thymidine was measured with a liquid scintillation counter.
To exclude the possibility that the purified naive CD4^+ T cells might have been contaminated with a small number of monocytes or DCs, cultured CD4^+ Treg cells (100% purity) were pretreated with CpG-A (SEQ ID NO: 1) for 3 days. After three washes, the pretreated CD4^+ Treg cells were mixed with naive CD4^+ T cells in anti-CD3 antibody-coated plates to evaluate their ability to suppress the proliferation of naive CD4^+ T cells.
To determine whether the CpG motif in CpG A confers the ability to reverse the suppressive function of CD4^+ Treg cells, CD4^+ Treg cell lines were pretreated for 3 days with CpG-A (SEQ ID NO: 1), non-CpG-A (CG changed to GC in CpG-A; SEQ ID NO: 3), CpG B (SEQ ID NO: 2) or non-CpG-B (CG changed to GC in CpG-B; SEQ ID NO: 4), and used them in proliferation assays following extensive washes.
Treg cells were pretreated with Poly-G2 (SEQ ID NO: 15) in different concentrations of chloroquine to examine whether acidification is required for the function of guanosine containing oligonucleotides. After extensive washes, the pretreated Treg cells were used for functional assays.
Take “CpG-B: CpG-B oligonucleotide, ligand for TLR9 (DNA GGGGGAGCATGCTGCGGGGG; listed as DNA, chemistry not given here)”: the “reversal of suppressive function of CD4+ Treg cells after pretreatment” value is “lacked any discernible effect”.

As for “non-CpG-B: CG changed to GC in CpG-B (DNA TGCTGCTTTTGTGCTTTTGTGCTT; listed as DNA, chemistry not given here)”, the “reversal of suppressive function of CD4+ Treg cells after pretreatment” value is recorded as “lacked any discernible effect”.

The series is the same for the next values; noted with them: pretreatment together with chloroquine.
Take “Poly-G2: guanosine containing oligonucleotide (DNA AAGGA; listed as DNA, chemistry not given here)”: the “reversal effect with Treg cells pretreated in different concentrations of chloroquine” value is listed as “decreased with increasing concentrations of chloroquine”.

Another series concerns antigen-specific Treg102 and Treg164 cells. The series can be described thus: TLR ligand assays: reversal of Treg suppression of naive CD4+ T cell proliferation. In kind it is cell-based, human. The settings on record: Treg102, Treg164 or naturally occurring CD4+CD25+ Treg cells (FIG. 4A-B). The protocol: Näive CD4 T+cells were purified from PBMCs by using microbeads (Miltenvi Biotec). Näive CD4^+ T cells ([…]) were cultured with regulatory T cells at a ratio of 10:1 in OKT3 (2 ug/ml)-coated, U bottomed 96-well plates containing the following ligands: LPS (100 ng/ml), imiquimod (10 μg/ml), loxoribine (500 μM), poly(I:C) (25 μg/ml), ssRNA40/LyoVec (3 μg/ml), ssRNA33/LyoVec (3 μg/ml), pam3CSK4 (200 ng/ml) and flagellin (10 μg/ml) were purchased from Invivogene (San Diego, Calif.), while CpG-A (3 μg/ml), CpG-B (3 μg/ml) and Poly-G oligonucleotides (3 μg/ml) were synthesized in Integrated DNA Technologies, Inc (Coralville, Iowa). Functional assays were identical to those described above.
If the TLR8-MyD88-IRAK4 signaling pathway is necessary and sufficient for direct reversal of the suppressive function of Treg cells, it should be possible to produce that effect with natural ligands for human TLR8. For FIG. 4A-B, naive CD4^+ T cells were mixed with Treg102, Treg164 or naturally occurring CD4^+ CD25^+ Treg cells in anti-CD3 antibody-coated wells in the presence of different TLR ligands. Data are presented as means±SD and represent results from three independent experiments.
Take `C=CCn1c(=O)n([C@@H]2O[C@H](CO)[C@@H](O)[C@H]2O)c2nc(N)[nH]c(=O)c21` [loxoribine]: the “restoration of proliferation of naive CD4+ T cells in the presence of Treg cells” value (shortened to “restoration”) is reported as “failed to restore the proliferation of naive CD4^+ T cells”.

As to “CpG-B: CpG-B oligonucleotide, ligand for TLR9 (DNA GGGGGAGCATGCTGCGGGGG; listed as DNA, chemistry not given here)”, the “restoration” value is reported as “failed to restore the proliferation of naive CD4^+ T cells”.

For the compound flagellin, the “restoration” value was “failed to restore the proliferation of naive CD4^+ T cells”.

As to poly(I:C), the “restoration” value is “failed to restore the proliferation of naive CD4^+ T cells”.
